BindingDB's records for doi:10.7270/Q2M61HPT (Nmmlsc, 2008)

Target: Glutathione S-transferase class-mu 26 kDa isozyme (Schistosoma japonicum, UniProt P08515)
Experiment: GST–glutathione interaction disruption – biochemical, multiplex beads, flow cytometry, HPSMTB buffer, profiling panel (AID 1324)

Glutathione S-transferase class-mu 26 kDa isozyme, sequence (P08515 2-218 limits assumed): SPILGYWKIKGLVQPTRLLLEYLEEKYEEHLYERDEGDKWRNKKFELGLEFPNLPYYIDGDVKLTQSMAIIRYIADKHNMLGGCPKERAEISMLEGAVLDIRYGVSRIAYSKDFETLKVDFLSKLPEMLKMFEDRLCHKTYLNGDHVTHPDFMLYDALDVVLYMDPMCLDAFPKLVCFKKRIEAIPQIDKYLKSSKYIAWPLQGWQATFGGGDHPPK

In the case of COc1cccc(CN=Nc2nn3cnnc3c3ccccc23)c1 [N-[1-(3-Methoxy-phenyl)-meth-(E)-ylidene]-N'-[1,2,4]triazolo[3,4-a]phthalazin-6-yl-hydrazine], the EC50 is reported as 7.28 µM.

O=[N+]([O-])c1ccc(N=NCc2ccc(O)c(O)c2O)c(S(=O)(=O)N2CCOCC2)c1 [MLS000336720] gave an EC50 of 24 µM.

With CN(C)[C@@H]1C(=O)C(C(=O)NCN2CCCC2)C(=O)[C@@]2(O)C(=O)C3C(=O)c4c(O)cccc4[C@@](C)(O)C3CC12 (stereo partly drawn) [(2Z,4S,6S,12aS)-4-(dimethylamino)-6,10,11,12a-tetrahydroxy-2-[hydroxy-(1-pyrrolidinylmethylamino)methylidene]-6-methyl-4,4a,5,5a-tetrahydrotetracene-1,3,12-trione] the EC50 was 21.4 µM.

For COc1cc(CN=Nc2nn3cnnc3c3ccccc23)ccc1O [(4E)-2-methoxy-4-[[2-([1,2,4]triazolo[3,4-a]phthalazin-6-yl)hydrazinyl]methylidene]cyclohexa-2,5-dien-1-one], the EC50 was 2.36 µM.
